Source: PMC5449446, “Metabolic Value Chemoattractants Are Preferentially Recognized at Broad Ligand Range Chemoreceptor of Pseudomonas putida KT2440” (Frontiers in Microbiology, 2017)

Assays:
PcaY_PP-LBD = molecular target: T1, PcaY_PP-LBD (Pseudomonas putida, UniProt Q88JK6); assay: biochemical; type: binding, Pseudomonas putida KT2440; settings: ITC at 25°C, 25 μM protein, One Binding Site model; means and SD of three experiments
T1 construct: His-tag (from the pET28b vector; inferred from NdeI/BamHI cloning and HisTrap purification) (N); made in house; host or cells: Escherichia coli BL21 (DE3)
Description: Experiments were carried out at 25°C using a VP-ITC titration calorimeter (Microcal Inc., Northampton, Massachusetts). […] Obtained data were corrected with the heat changes measured for the injection of ligand into buffer. Data were normalized with the protein concentration (Bradford assay) and fitted with the “One Binding Site” model of the MicroCal version of the ORIGIN 7.0 software (OriginLab Corporation, Northampton, MA, United States), leaving all parameters floating.

MCP2983 = test system: MCP2983; design: method as in Ni et al., 2015; settings: ref Ni et al., 2015; cited from earlier work
McpS = molecular target: McpS; design: method as in ref (7-9) (a number printed in a supplementary file, which may have a reference list of its own: not looked up in the article's list); settings: ITC, purified recombinant LBD; ref (7-9); cited from earlier work
McpP = molecular target: McpP; design: method as in ref (6) (a number printed in a supplementary file, which may have a reference list of its own: not looked up in the article's list); settings: ITC, purified recombinant LBD; ref (6); cited from earlier work
Tar-LBD = test system: Tar-LBD; design: method as in Milligan and Koshland, 1993; settings: estimated; ref Milligan and Koshland, 1993; cited from earlier work
[1] = molecular target: the molecule itself; assay: AUC; sedimentation velocity with saturating quinate or shikimate (400 uM), 40,000 rpm, 10°C, analysis buffer (5 mM PIPES, 5 mM MES, 5 mM Tris-HCl, pH 8.0)
[2] = molecular target: the molecule itself; assay: AUC; multi-speed, multi-wavelength sedimentation equilibrium, ligand-free protein, six concentrations 15-280 uM, 12,000, 14,000 and 18,000 rpm, 10°C, analysis buffer pH 8.0; global fit to a monomer-dimer self-association model (SEDPHAT); dimer to monomers

## O=C(O)/C=C(/CC(=O)O)C(=O)O [cis-aconitate]
PcaY_PP-LBD
  KD: did not show any binding
MCP2983
  binding to recombinant LBD: recognized

## CC(=O)O [Acetate]
McpS
  Kd: 574 µM
McpP
  Kd: 34 µM

## N[C@@H](CC(=O)O)C(=O)O [aspartate]
Tar-LBD
  decrease of the dimer self-association constant, factor: around 100

B1: PcaY_PP-LBD, recombinant ligand binding domain of the PcaY_PP (PP2643) chemoreceptor of Pseudomonas putida KT2440 (domain or fragment, UniProt Q88JK6 44-196, looked up)
chain: GSDQQITELDQTAHQSDRLNNALLMAIRSSANVSSGFIEQLGGHDESAGKRMALSVELNNKSQALVDEFVENAREPALRGLATELQATFAEYAKAVAGQREATRQRSLEQYFKVNSDAGNAMGRLQTLRQQLVTTLSERGQQIMLESDRRLAR
notes: Cloned NdeI/BamHI into pET28b with a stop codon in the reverse primer; No tag removal is described
[1]
  stoichiometry N: 2
[2]
  Kd: 57.5 µM
